For one data set, the system named is mouse 3T3 fibroblast. Put plainly: XTT assay (cytotoxicity test). In kind it is cell-based. As to conditions: 16 hours culture, T/C %. Here is the method: (§1) A reporter plasmid was prepared according to the method of R. I. Scheinman et al. [Mol. Cell. Biol., Vol. 15, Pages 943-953 (1995)]. That is, a plasmid p(TRE)5TK-Luc was constructed by connecting a promoter of thymidine kinase (TK) at an upstream site of luciferase (Luc) gene which is a reporter gene and a 5-times repeated TRE sequence at a further upstream site thereof. The plasmid was co-transfected simultaneously with p3′SS plasmid (prepared by Stratagene Co.) by the electrotranspolation method onto mouse 3T3 fibroblast (ATCC: CCL-163) cultured in a Dulbecco's modified Eagle's medium (DMEM) containing 10% fetal calf serum (FCS). Then the cells were cultured in DMEM containing 10% FCS and 100 μg/ml of Hygromycin B. Using the expression of Hygromycin-resistant gene contained in p3′SS as an indicator, cell strains of the transfectant into which the objective plasmid had been introduced stably were selected. Furthermore in the test mentioned below, cell strains showing expression of Luc gene under stimulation of 12-O-tetradecanoylphorbol 13-acetate (TPA, prepared by Sigma Co.) were used, and DMEM containing 10% FCS and 100 μg/ml of Hygromycin B was used for the culture of cells.
The same culture plate as above was prepared, and test compound and TPA were added under the same conditions as above, after which a culture was carried out for 16 hours. The end of cluture, XTT reagent prepared according to the method of D. A. Scudievo [Cancer Res., Vol. 48, Pages 4827-4833 (1988)] was added and made to react for a prescribed period of time. Then, the amount of formazan formed by alive cells was analyzed by measuring absorbance at 450 nm using a micro plate reader. In this test, a decrease in absorbance is observed when the test compounds show a cytotoxicitic or a growth inhibitory activity. Cell viability (T/C %) was determined according to the following formula:
Cell Viability Rate (T/C %)=(Absorbance of well to which compound is added/Absorbance of well to which the compound was not added)×100
(§2) The compounds of Example No. 1, 6(3), 6(5), 13, 15, 17, 18(1), 18(8), 20(1) and 20(2) were converted to sodium salts according to the method of Example 42, and then used for the assay.
On the technique in general: Formazan colour is commonly taken as a measure of viable cells.

In data set [1] the test system is transcription factor AP-1. Put plainly: Luciferase assay (TPA-stimulated p(TRE)5TK-Luc reporter transfectant). As to conditions: Mus musculus, TPA stimulation 16 hours, Luc activity, read-out: Inhibition rate (%); for inhibition at 30 µg/mL: 30 μg/ml test compound; for inhibition at 100 µg/mL: 100 μg/ml test compound. The data set is classed as cell-based. The procedure: as §1
The cells prepared above were suspended in culture medium, and plated 96 well-plate at 1×10^4 cells/0.1 ml. After culturing it overnight, 50 μl of test compounds solution and 40 μl of culture medium were added, and incubated. After one hour 10 μl of 200 ng/ml TPA solution was added and the culture was continued for an additional 16 hours to stimulate the cells. The end of cluture, the cells were recovered, and cell lysis solutions were obtained. The Luc activity of the cell lysates was measured with a chemilluminescent detection kit (Pica Gene; manufactured by Toyo Ink Co.). The suppressive effect of each test compound could be assessed as a decrease of Luc activity, and the inhibition rate (%) was calculated according to the following formula:
Inhibition rate (%)=(1−Luc activity of cells to which the compound is added/Luc activity of cells to which the compound is not added)×100
as §2

In data set [2] the test system is type II collagen-induced arthritis. Nature of the data set: Type II collagen-induced arthritis in mice (arthritis score, joint-bone destruction score). The data set is classed as in vivo, DBA/1J mice. As to conditions: 100 mg/kg orally once every day from day 21 to day 35, mean. The procedure: The compound of Example 20 (1) was tested for the effect on type II collagen-induced arthritis, using 8 weeks old, male DBA/1J mice (Japan Charles River). Emulsion was prepared by mixing an equal volume of bovine type II collagen (prepared by Koken) in 0.1N acetic acid (2 mg/ml) and Freund's complete adjuvant (prepared by Nacalai Tesque). Arthritis was induced by intradermal injection of 0.2 ml (the quantity of antigen: 200 μg/head) of the emulsion into the skin of the tail root twice (day 0 and day 21). The test compound was suspended in 0.5% solution of methyl cellulose, and 100 mg/kg was orally administered once every day from day 21 to day 35. […] Severity of the arthritis was scored 0: no change, 1: only one or two swelling of the joints or slight swelling of the ankle or toes, 2: swelling and/or rubor in further joints, 3: extensive swelling of whole paw, and the maximum possible score for arthritis was 12 points. As to the severity of destruction of joints and bones, X ray photographs of four paws were taken (Softex), and severity of destruction in the second to fifth articulationes interphalangeae, first to fifth articulationes metacarpophalangeae and metatarsophalangeae, and calcaneus was scored by 0 or 1 in accordance with presence or absence of destruction, and the severity of destruction in the carpus and tarsal was scored by 0 to 3. […]

As usually defined, the inhibition is the percentage by which the read-out fell short of the control. `CC(C)c1ccc(OC2CCC3(CC2)SC(C)(C)[C@H](C(=O)O)N3C(=O)c2ccccc2)cc1` (stereo partly drawn) [20 (1), (3S)-4-Benzoyl-8-(4-isopropylphenoxy)-2,2-dimethyl-1-thia-4-azaspiro[4.5]decane-3-carboxylic acid]: the “Cell viability (%)” value in the data set with mouse 3T3 fibroblast (30 μg/ml test compound) is given as 98%. Further, the inhibition at 30 µg/mL in data set [1] stood at 72%. This compound also yielded a Joint-bone destruction score in data set [2] (X ray of four paws, control 20 ± 3) of 14 ± 3. Also, the Arthritis score in data set [2] (maximum score 12, control 10 ± 1) worked out at 8 ± 1.

As to `CC(C)c1ccc(OC2CCC3(CC2)SC(C)(C)[C@@H](C(=O)O)N3C(=O)c2ccccc2)cc1` (stereo partly drawn) [20 (2), (3R)-4-Benzoyl-8-(4-isopropylphenoxy)-2,2-dimethyl-1-thia-4-azaspiro[4.5]decane-3-carboxylic acid], the “Cell viability (%)” value in the data set on mouse 3T3 fibroblast (100 μg/ml test compound) is given as 92%. Further, in data set [1], the inhibition at 100 µg/mL is 93%.

In the case of `CC(C)c1ccc(OC2CCC3(CC2)SC[C@@H](C(=O)O)N3C(=O)c2cnc3ccccc3c2)cc1` (stereo partly drawn) [41 (2), (3R)-8-(4-Isopropylphenoxy)-4-(3-quinolylcarbonyl)-1-thia-4-azaspiro[4.5]decane-3-carboxylic acid], the “Cell viability (%)” value with mouse 3T3 fibroblast (100 μg/ml test compound) came to 71%. For the same compound, in data set [1], the inhibition at 100 µg/mL is 94%.

As for `Cc1nc(C(=O)N2[C@H](C(=O)O)CSC23CCC(Oc2ccc(C(C)C)cc2)CC3)cs1` (stereo partly drawn) [41 (3), (3R)-8-(4-Isopropylphenoxy)-4-[(2-methyl-1,3-thiazol-4-yl)carbonyl]-1-thia-4-azaspiro[4.5]decane-3-carboxylic acid], the “Cell viability (%)” value with mouse 3T3 fibroblast (100 μg/ml test compound) is reported as 97%. Moreover, the inhibition at 100 µg/mL in data set [1] is 80%.

For `CC(C)c1ccc(OC2CCC3(CC2)SC[C@@H](C(=O)O)N3C(=O)c2cnccn2)cc1` (stereo partly drawn) [41 (4), (3R)-8-(4-Isopropylphenoxy)-4-(2-pyrazinylcarbonyl)-1-thia-4-azaspiro[4.5]decane-3-carboxylic acid], in the data set on mouse 3T3 fibroblast (100 μg/ml test compound), the “Cell viability (%)” value was 82%. Further, in data set [1], the inhibition at 100 µg/mL is 96%.

As to `COc1ccc(C(=O)N2[C@H](C(=O)O)CSC23CCC(Oc2ccc(C(C)C)cc2)CC3)cc1` (stereo partly drawn) [41 (5), (3R)-8-(4-Isopropylphenoxy)-4-(4-methoxybenzoyl)-1-thia-4-azaspiro[4.5]decane-3-carboxylic acid], the “Cell viability (%)” value with mouse 3T3 fibroblast (100 μg/ml test compound) is listed as 90%. In addition, the inhibition at 100 µg/mL in data set [1] amounted to 94%.

Consider `CCN(CC)C(=O)c1ccc(C(=O)N2[C@H](C(=O)O)CSC23CCC(Oc2ccc(C(C)C)cc2)CC3)cc1` (stereo partly drawn) [41 (6), (3R)-4-{4-[(Diethylamino)carbonyl]benzoyl}-8-(4-isopropylphenoxy)-1-thia-4-azaspiro[4.5]decane-3-carboxylic acid], for which the “Cell viability (%)” value in the data set on mouse 3T3 fibroblast (100 μg/ml test compound) was 97%. The inhibition at 100 µg/mL in data set [1] turned out to be 49%.

For the compound `CCOC(=O)[C@@H]1CSC2(CCC(Oc3ccc(C(C)C)cc3)CC2)N1C(=O)c1ccccc1` (stereo partly drawn) [Example 21, ethyl (3R)-4-benzoyl-8-(4-isopropylphenoxy)-1-thia-4-azaspiro[4.5]decane-3-carboxylate], the “Cell viability (%)” value in the data set with mouse 3T3 fibroblast (30 μg/ml test compound) amounted to 74%. The inhibition at 30 µg/mL in data set [1] stood at 28%.

Turning to `CC(C)c1ccc(OC2CCC3(CC2)SC[C@@H](C(=O)NCCC(=O)O)N3C(=O)c2ccccc2)cc1` (stereo partly drawn) [Example 29, 3-({[(3R)-4-benzoyl-8-(4-isopropylphenoxy)-1-thia-4-azaspiro[4.5]-decan-3-yl]carbonyl}amino)-propionic acid], the “Cell viability (%)” value with mouse 3T3 fibroblast (100 μg/ml test compound) is on record as 110%. In addition, in data set [1], the inhibition at 100 µg/mL was found to be 92%.

In the case of `CC(C)c1ccc(OC2CCC3(CC2)SC[C@@H](C(=O)O)N3C(=O)c2ccc[nH]2)cc1` (stereo partly drawn) [Example 40, (3R)-8-(4-isopropylphenoxy)-4-(1H-2-pyrrolylcarbonyl)-1-thia-4-azaspiro[4.5]decane-3-carboxylic acid], the “Cell viability (%)” value in the data set on mouse 3T3 fibroblast (100 μg/ml test compound) is 108%. Besides, in data set [1], the inhibition at 100 µg/mL was 91%.

`CC(C)CC=C1CCC2(CC1)SC(C)(C)[C@@H](C(=O)O)N2C(=O)CCC(C)C` (stereo partly drawn) [Example 44, (3R)-2,2-dimethyl-8-(3-methylbutylidene)-4-(4-methylpentanoyl)-1-thia-4-azaspiro[4.5]decane-3-carboxylic acid]: the “Cell viability (%)” value with mouse 3T3 fibroblast (30 μg/ml test compound) is 75%. For the same compound, the inhibition at 30 µg/mL in data set [1] stood at 62%.

As to `CC(C)CC=C1CCC2(CC1)SC(CC(=O)OC(C)C)C(=O)N2CC(=O)O` (centres unmarked) [Example 47, 2-[2-(2-isopropoxy-2-oxoethyl)-8-(3-methylbutylidene)-3-oxo-1-thia-4-azaspiro[4.5]decan-4-yl]-acetic acid], the “Cell viability (%)” value with mouse 3T3 fibroblast (30 μg/ml test compound) came to 83%. Moreover, in data set [1], the inhibition at 30 µg/mL was found to be 47%.

Values taken from patent US6384065B1, “Spiro compounds or salts thereof and preventives/remedies for autoimmune diseases and AP-1 inhibitors containing the same” (Toyama Chemical Co., Ltd., priority 1998, dated 2002).
